Data set [1] in a line: Relaxivity in water (NMR pulse spectrometer Minispec PC 20). The following applies: 40° C., 0.47 T. The class given is physicochemical. The protocol:
The T1 and T2 relaxation times of water and plasma (from cows) with increasing concentrations of the gadolinium complexes (I-XIII) contained therein were determined at 40° C. with use of an NMR pulse spectrometer (Minispec PC 20) at 0.47 T, and the relaxivity was determined.

Data set [2] can be described thus: Plasma kinetics after intravenous administration in rats (ICP-AES). It counts as in vivo. The conditions noted are these: i.v., 50 μmol of total gadolinium/kg of body weight. As for the experimental part:
After intravenous administration of 50 μmol of total gadolinium/kg of body weight of the gadolinium complexes (I-X) in rats (n=3), blood samples were taken via a catheter in the common carotid artery at different points in time ([…] to 24 hours p.i.), the metal content was determined by means of atomic emission spectrometry (ICP-AES) and converted to plasma values via a conversion factor (0.625). The elimination half-life was calculated by means of special software (WinNonlin) from the plasma concentrations.

Data set [3] concerns mice. As to the kind of experiment: Acute toxicity after one-time intravenous administration in mice. It counts as in vivo. The conditions noted are these: one-time i.v., observation period of 7 days, determined preliminarily. The protocol: After intravenous administration of the gadolinium complexes (I-X) in mice (n=3; rate of injection: 2 ml/min), the acute systemic compatibility (LD50) was determined preliminarily. In each case, several dosages with an observation period of 7 days were examined. The acute toxicities that are to be expected can be seen in Table 1.

The nature of data set [4]: Excretion after intravenous administration in rats (ICP-AES). The class given is in vivo. The conditions noted are these: i.v., 50 μmol of total gadolinium/kg of body weight, 14 days after administration. The text has this:
After intravenous administration of 50 μmol of total gadolinium/kg of body weight of the gadolinium complexes (I-X) in rats (n=3), the metal content was l determined in fractions up to 14 days after administration by means of atomic emission spectrometry (ICP-AES) in the excretion media of urine and feces, as well as in the body (the rest of the body).

The subject of data set [5] is arteriosclerotic plaque. As to the kind of experiment: MRT visualization of arteriosclerotic plaque. It counts as in vivo, Watanabe rabbits (WHHL rabbits). The following applies: WHHL rabbits, i.v. 50 μmol or 100 μmol of Gd/kg, 6 or 24 hours, T1-weighted IR-TFL; not in vascular wall of healthy control animals. The protocol: The pictures of FIG. 2 show MR images of the aorta 6 or 24 hours after intravenous administration of 50 μmol or 100 μmol of Gd/kg of body weight of gadolinium complex I (title substance of Example 1f), gadolinium complex IV (title substance of Example 11e), and gadolinium complex VIII (title substance of Example 16c) in Watanabe rabbits (WHHL rabbits; genetically-induced arteriosclerosis) and in control animals without arteriosclerosis (white New Zealands). […] The localization of the plaque, especially in the aortic arch as well as in the vascular passages, was confirmed by means of Sudan-3 staining. With this test, the suitability of the compounds according to the invention as markers for arteriosclerotic plaque could be shown.

Experimental findings from patent US20070020183A1, “Perfluoroalkyl-containing complexes, process for their production as well as their use” (priority 2005, published 2007) are described below.

The structures appear in SMILES notation. A value given as a limit tells only on which side of the number the result lay.

As for `CC(C(=O)NCC(=O)NCCCC[C@H](NC(=O)CO[C@H]1O[C@H](CO)[C@@H](O)[C@H](O)[C@@H]1O)C(=O)NCCCC(F)(F)C(F)(F)C(F)(F)C(F)(F)C(F)(F)C(F)(F)F)N1CCN(CC(=O)[O-])CCN(CC(=O)[O-])CCN(CC(=O)[O-])CC1.[Gd+3]` (stereo partly drawn) [Gadolinium complex II, Gadolinium complex of 6-N-[1,4,7-tris-(carboxylatomethyl)-1,4,7,10-tetraazacyclododecane-10-N-(pentanoyl-3-aza-4-oxo-5-methyl-5-yl)]-2-N-(1-O-α-d-carbonylmethylmannopyranose)-L-lysine-[(1H,1H,2H,2H-perfluorooctyl)-methyl]-amide], in data set [1], the “Relaxivity R1(w)” value is listed as “R1(w): 5.7 l/(mmol * s)”. In data set [2], the “Elimination Half-Life of Blood” value was found to be 0.9 hour^ hours and the “Gd Content of Blood 24 Hours p.i.” value came out at 0.0%. In addition, the “LD50 Mouse” value in data set [3] amounted to 10 mmol/kg. For the same molecule, the “Body Retention 14 days” value in data set [4] stood at 0.0%.

As for `CC(C(=O)NCC(=O)NCCCC[C@H](NC(=O)CO[C@H]1O[C@H](CO)[C@@H](O)[C@H](O)[C@@H]1O)C(=O)NCCCOCCC(F)(F)C(F)(F)C(F)(F)C(F)(F)C(F)(F)C(F)(F)C(F)(F)C(F)(F)F)N1CCN(CC(=O)[O-])CCN(CC(=O)[O-])CCN(CC(=O)[O-])CC1.[Gd+3]` (stereo partly drawn) [Gadolinium complex III, Gadolinium complex of 6-N-[1,4,7-tris-(carboxylatomethyl)-1,4,7,10-tetraazacyclododecane-10-N-(pentanoyl-3-aza-4-oxo-5-methyl-5-yl)]-2-N-(1-O-α-d-carbonylmethylmannopyranose)-L-lysine-[(1H,1H,2H,2H,4H,4H,5H,5H-3-oxa-perfluorotridecyl)-methyl]-amide], in data set [1], the “Relaxivity R1(w)” value was “R1(w): 17.8 l/(mmol * s)”. Further, in data set [2], the “Elimination Half-Life of Blood” value stood at 6.2 h and the “Gd Content of Blood 24 Hours p.i.” value is recorded as 1.6%. For the same molecule, in data set [3], the “LD50 Mouse” value was “≧10 mmol/kg”. In addition, the “Body Retention 14 days” value in data set [4] was found to be 1.5%.

As for `COCCN(CCOCCC(F)(F)C(F)(F)C(F)(F)C(F)(F)C(F)(F)C(F)(F)C(F)(F)C(F)(F)F)C(=O)[C@H](CCCCNC(=O)CNC(=O)C(C)N1CCN(CC(=O)[O-])CCN(CC(=O)[O-])CCN(CC(=O)[O-])CC1)NC(=O)CO[C@H]1O[C@H](CO)[C@@H](O)[C@H](O)[C@@H]1O.[Gd+3]` (stereo partly drawn) [Gadolinium complex IV, Gadolinium complex of 6-N-[1,4,7-tris-(carboxylatomethyl)-1,4,7,10-tetraazacyclododecane-10-N-(pentanoyl-3-aza-4-oxo-5-methyl-5-yl)]-2-N-(1-O-α-d-carbonylmethylmannopyranose)-L-lysine-N-(2-methoxyethyl)-N-(1H,1H,2H,2H,4H,4H,5H,5H-3-oxa-perfluorotridecyl)-amide], in data set [1], the “Relaxivity R1(w)” value is listed as “R1(w): 16.6 l/(mmol * s)”. In data set [2], the “Elimination Half-Life of Blood” value amounted to 5.3 h and the “Gd Content of Blood 24 Hours p.i.” value was 1.8%. Moreover, in data set [5], the “MR signal in the arteriosclerotic plaque” value was “strong signal rise”. In addition, the “LD50 Mouse” value in data set [3] was “≧15 mmol/kg”. Moreover, the “Body Retention 14 days” value in data set [4] worked out at 2.6%.

As to `CC(C(=O)NCC(=O)N[C@@H](CCCCNC(=O)CO)C(=O)NCCCC(F)(F)C(F)(F)C(F)(F)C(F)(F)C(F)(F)C(F)(F)C(F)(F)C(F)(F)F)N1CCN(CC(=O)[O-])CCN(CC(=O)[O-])CCN(CC(=O)[O-])CC1.[Gd+3]` (stereo partly drawn) [Gadolinium complex IX, Gadolinium complex of 2-N-[1,4,7-tris-(carboxylatomethyl)-1,4,7,10-tetraazacyclododecane-10-N-(pentanoyl-3-aza-4-oxo-5-methyl-5-yl)]-6-N-(2-hydroxyacetyl)-L-lysine-[(1H,1H,2H,2H-perfluorodecyl)-methyl]-amide], in data set [1], the “Relaxivity R1(w)” value is reported as “R1(w): 18.8 l/(mmol * s)”. Moreover, in data set [2], the “Elimination Half-Life of Blood” value was 4.3 h and the “Gd Content of Blood 24 Hours p.i.” value worked out at 0.5%. In addition, the “LD50 Mouse” value in data set [3] is >10 mmol/kg. Further, in data set [4], the “Body Retention 14 days” value is 0.2%.

With `COCCN(CCC(F)(F)C(F)(F)C(F)(F)C(F)(F)C(F)(F)C(F)(F)C(F)(F)C(F)(F)F)C(=O)[C@H](CCCCNC(=O)CNC(=O)C(C)N1CCN(CC(=O)[O-])CCN(CC(=O)[O-])CCN(CC(=O)[O-])CC1)NC(=O)CO[C@H]1O[C@H](CO)[C@@H](O)[C@H](O)[C@@H]1O.[Gd+3]` (stereo partly drawn) [Gadolinium complex V, Gadolinium complex of 6-N-[1,4,7-tris-(carboxylatomethyl)-1,4,7,10-tetraazacyclododecane-10-N-(pentanoyl-3-aza-4-oxo-5-methyl-5-yl)]-2-N-(1-O-α-d-carbonylmethylmannopyranose)-L-lysine-N-(2-methoxyethyl)-N-(1H,1H,2H,2H-perfluorodecyl)-amide], in data set [1], the “Relaxivity R1(w)” value was “R1(w): 18.3 l/(mmol * s)”. Moreover, in data set [2], the “Elimination Half-Life of Blood” value is 6.7 h and the “Gd Content of Blood 24 Hours p.i.” value is given as 2.1%. Besides, in data set [3], the “LD50 Mouse” value is recorded as 15 mmol/kg. Besides, the “Body Retention 14 days” value in data set [4] is recorded as 0.0%.

On to `CC(C(=O)NCC(=O)NCCCC[C@H](NC(=O)COCC(CO)(CO)CO)C(=O)NCCCC(F)(F)C(F)(F)C(F)(F)C(F)(F)C(F)(F)C(F)(F)C(F)(F)C(F)(F)F)N1CCN(CC(=O)[O-])CCN(CC(=O)[O-])CCN(CC(=O)[O-])CC1.[Gd+3]` (stereo partly drawn) [Gadolinium complex VI, Gadolinium complex of 6-N-[1,4,7-tris-(carboxylatomethyl)-1,4,7,10-tetraazacyclododecane-10-N-(pentanoyl-3-aza-4-oxo-5-methyl-5-yl)]-2-N-[(3-hydroxy-2,2-dihydroxymethylpropoxy)-acetyl]-L-lysine-[(1H,1H,2H,2H-perfluorodecyl)-methyl]-amide], for which, in data set [1], the “Relaxivity R1(w)” value is reported as “R1(w): 16.9 l/(mmol * s)”. Further, in data set [2], the “Elimination Half-Life of Blood” value is 7.7 h and the “Gd Content of Blood 24 Hours p.i.” value is given as 2.6%. The “LD50 Mouse” value in data set [3] is recorded as >10 mmol/kg. The “Body Retention 14 days” value in data set [4] was 0.0%.

Regarding `COC[C@H]1O[C@H](OCC(=O)NC(CCCCNC(=O)CNC(=O)C(C)N2CCN(CC(=O)[O-])CCN(CC(=O)[O-])CCN(CC(=O)[O-])CC2)C(=O)N(C)CCC(F)(F)C(F)(F)C(F)(F)C(F)(F)C(F)(F)C(F)(F)C(F)(F)C(F)(F)F)[C@@H](OC)[C@@H](OC)[C@@H]1OC.[Gd+3]` (stereo partly drawn) [Gadolinium complex VII, Gadolinium complex of 6-N-[1,4,7-tris-(carboxylatomethyl)-1,4,7,10-tetraazacyclododecane-10-N-(pentanoyl-3-aza-4-oxo-5-methyl-5-yl)]-2-N-[1-O-α-d-carbonylmethyl-(2,3,4,6-tetra-O-methyl)mannopyranose]-L-lysine-[(1H,1H,2H,2H-perfluorodecyl)-methyl]-amide], in data set [1], the “Relaxivity R1(w)” value is recorded as “R1(w): 14.7 l/(mmol * s)”. For the same molecule, in data set [2], the “Elimination Half-Life of Blood” value was 5.4 h and the “Gd Content of Blood 24 Hours p.i.” value is given as 1.2%. For the same molecule, the “LD50 Mouse” value in data set [3] is “≦15 mmol/kg”. The “Body Retention 14 days” value in data set [4] worked out at 5.4%.
